Measured values taken from paper PMC2900413 (Biochemical pharmacology, 2010).
Entries after “also recorded” stand apart in the source; their conditions may differ.

How the values were obtained:
[1] = target: T1, A2B AR (Homo sapiens, UniProt P29275); experiment: Cyclic AMP accumulation assay, CHO cells expressing the A2B AR; type: cell-based; conditions: at 10 μM
T1 sequence (P29275 1-332): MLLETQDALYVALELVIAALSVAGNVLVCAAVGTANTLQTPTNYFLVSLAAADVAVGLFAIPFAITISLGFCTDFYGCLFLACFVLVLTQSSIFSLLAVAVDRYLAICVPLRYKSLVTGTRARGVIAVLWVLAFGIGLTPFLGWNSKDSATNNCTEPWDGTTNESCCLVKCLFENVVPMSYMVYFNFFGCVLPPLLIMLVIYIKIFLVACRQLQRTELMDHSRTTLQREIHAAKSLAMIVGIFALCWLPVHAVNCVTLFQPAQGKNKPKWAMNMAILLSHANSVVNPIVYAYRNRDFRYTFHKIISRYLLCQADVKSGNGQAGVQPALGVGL

[2] = target: T2, A3 AR (Homo sapiens, UniProt P0DMS8); experiment: Radioligand membrane binding assay at the A3 AR with [125I]AB-MECA
T2 sequence (P0DMS8 1-318): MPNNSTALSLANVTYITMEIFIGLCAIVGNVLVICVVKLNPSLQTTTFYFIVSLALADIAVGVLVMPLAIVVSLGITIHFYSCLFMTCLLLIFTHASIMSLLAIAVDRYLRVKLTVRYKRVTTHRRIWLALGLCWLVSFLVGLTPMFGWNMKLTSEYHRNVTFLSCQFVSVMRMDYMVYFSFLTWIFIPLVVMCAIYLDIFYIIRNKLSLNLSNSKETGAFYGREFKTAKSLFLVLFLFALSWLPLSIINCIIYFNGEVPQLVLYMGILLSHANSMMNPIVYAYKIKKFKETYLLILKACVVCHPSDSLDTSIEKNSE

[3] = target: A2AAR (Homo sapiens, UniProt P29274); experiment: Cyclic AMP accumulation assay, CHO cells expressing the A2AAR; conditions: CGS21680-induced cyclic AMP accumulation in CHO cells expressing the A2AAR
A2AAR (Homo sapiens, UniProt P29274), sequence (P29274 whole entry): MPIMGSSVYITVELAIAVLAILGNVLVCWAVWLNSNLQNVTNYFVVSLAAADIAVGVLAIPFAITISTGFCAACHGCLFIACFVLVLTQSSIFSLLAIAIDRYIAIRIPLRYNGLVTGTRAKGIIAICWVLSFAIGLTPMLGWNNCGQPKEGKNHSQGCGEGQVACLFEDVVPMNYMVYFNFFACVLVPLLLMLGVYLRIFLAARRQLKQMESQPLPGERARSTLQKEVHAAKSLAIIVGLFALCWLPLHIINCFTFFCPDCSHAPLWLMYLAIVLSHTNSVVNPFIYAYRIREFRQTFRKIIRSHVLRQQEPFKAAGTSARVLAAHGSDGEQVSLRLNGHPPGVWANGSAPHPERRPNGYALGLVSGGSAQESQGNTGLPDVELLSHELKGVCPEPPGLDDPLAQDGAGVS

[4] = target: T3, A1 AR (Homo sapiens, UniProt P30542); experiment: Radioligand membrane binding assay at the A1 AR with [3H]R-PIA
T3 sequence (P30542 1-326): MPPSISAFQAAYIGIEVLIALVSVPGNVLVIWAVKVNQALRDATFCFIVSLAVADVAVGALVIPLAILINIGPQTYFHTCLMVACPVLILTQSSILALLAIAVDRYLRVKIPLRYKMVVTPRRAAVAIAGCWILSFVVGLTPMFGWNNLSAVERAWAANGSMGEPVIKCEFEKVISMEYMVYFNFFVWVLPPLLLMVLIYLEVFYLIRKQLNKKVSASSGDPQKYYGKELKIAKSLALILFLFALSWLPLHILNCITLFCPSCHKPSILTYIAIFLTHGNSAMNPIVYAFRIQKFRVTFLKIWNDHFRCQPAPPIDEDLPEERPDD

[5] = target: A2AAR; conditions: read-out: Ki, radioligand binding; reported values; ref [1], [27], [28], [29]; cited from earlier work

SMILES	effect on NECA-induced cyclic AMP accumulation [1]	effect on A3 AR in binding ([2]; at 10 μM)	inhibition at 10 µM ([2]; read-out: inhibition of radioligand binding at A3 AR) [%]	functional activity in cyclic AMP assay at the A2AAR [3]	effect on A1 AR in binding ([4]; at 10 μM)	inhibition at 10 µM ([4]; read-out: inhibition of radioligand binding at A1 AR) [%]	Ki [5] [nM]
N=c1ccc2c(-c3ccc(C(=O)NCCNC(=O)COc4ccc(CCCn5ncc6c5nc(N)n5nc(-c7ccco7)nc65)cc4)cc3C(=O)O)c3ccc(N)c(S(=O)(=O)O)c3oc-2c1S(=O)(=O)O [MRS5346, 5-((2-(2-(4-(3-(5-amino-2-(furan-2-yl)-7H-pyrazolo[4,3-e][1,2,4]triazolo[1,5-c]pyrimidin-7-yl)propyl)phenoxy)acetamido)-ethyl)-carbamoyl)-2-(6-amino-3-iminio-4,5-disulfonato-3H-xanthen-9-yl)benzoate]	did not show any effect; also recorded: did not inhibit	did not show any effect	3.8 ± 2.1	antagonist; also recorded: inhibited cyclic AMP accumulation	did not show any effect	4.6 ± 1.9	–
OC[C@H]1O[C@@H](n2cnc3c(NC4CCCC4)ncnc32)[C@H](O)[C@@H]1O [CPA]	–	–	–	–	–	–	794
